Data: patent US20240408010A1, “A Nano Emulsified Phyto-Drug For Transdermal Treatment of Diabetes” (University of South Africa, priority 2021, published 2024)

Experiments:
[1] = test system: albino Wistar rats; assay: Streptozotocin induction of hyperglycemic/diabetic state in albino Wistar rats; type: in vivo
Description: Table 1 presents the results of how the metabolism of normal albino rats progresses into a hyperglycemic/diabetic state as a multiple low-dosage of streptozotocin is administered for diabetes induction.

[2] = Solubility of diosgenin in oil phase; type: physicochemical; settings: dissolved in combination with bottle gourd seed

SMILES | Glucose Concentration ([1]; First Cycle, Day 15) [mg/dL] | Glycated Hemoglobin GHb ([1]; First Cycle, Day 15) | Glycated Hemoglobin HbA1c ([1]; First Cycle, Day 15) [%] | Glycated Hemoglobin MBG ([1]; First Cycle, Day 15) | Glucose Concentration ([1]; First Cycle, Dose 1 of multiple low-dosage streptozotocin) [mg/dL] | Glucose Concentration ([1]; First Cycle, Dose 2) [mg/dL] | Glucose Concentration ([1]; First Cycle, Dose 3) [mg/dL] | Glucose Concentration ([1]; Second cycle, Dose 4) [mg/dL] | Glucose Concentration ([1]; Second cycle, Dose 5) [mg/dL] | Glucose Concentration ([1]; Second cycle, Dose 6) [mg/dL] | Glycated Hemoglobin GHb ([1]; Second cycle, Dose 6) | Glycated Hemoglobin HbA1c ([1]; Second cycle, Dose 6) [%] | Glycated Hemoglobin MBG ([1]; Second cycle, Dose 6) | solubility of diosgenin [2]
CN(N=O)C(=O)N[C@H]1C(O)O[C@H](CO)[C@@H](O)[C@@H]1O (mixture of isomers) [Streptozotocin, streptozotocin] | 532.17 ± 22.15 | 12.37 ± 0.81 | 9.50 ± 0.54 | 225.39 ± 15.55 | 171.56 ± 22.70 | 318.31 ± 19.86 | 439.31 ± 41.00 | 425.60 ± 31.10 | 459.87 ± 33.56 | 451.89 ± 44.27 | 12.40 ± 0.28 | 9.50 ± 0.19 | 226.03 ± 5.53 | –
C[C@@H]1CC[C@@]2(OC1)O[C@H]1C[C@H]3[C@@H]4CC=C5C[C@@H](O)CC[C@]5(C)[C@H]4CC[C@]3(C)[C@H]1[C@@H]2C [diosgenin] | – | – | – | – | – | – | – | – | – | – | – | – | – | enhanced
